Data published in US20120270844A1, “METHODS FOR TREATING ALZHEIMER'S DISEASE” (aFRAXis, Inc., priority 2009, published 2012).

Columns and labels:
Format in all cases: biochemical
[1] = biological target: PAK4 (Homo sapiens, UniProt O96013); assay: Z'Lyte fluorescence-based (FRET) PAK kinase assay, PAK4; settings: 5 μM ATP
Protocol: (§1) A fluorescence-based assay format is used to determine IC50 values of test compounds in vitro. Purified PAK kinase is incubated with ATP, and a test compound at various concentrations and a substrate peptide containing two fluorophores. In a second step, the reaction mix is incubated with a site-specific protease that cleaves non-phosphorylated bat not phosphorylated substrate peptide, disrupting the FRET signal generated by the two fluorophores in the cleaved peptide (Z′Lyte™ Kinase assay platform; Life Technologies).
(§2) Reagents: 50 mM HEPES, pH 7.5; 0.01% BRIJ-35; […]; 1 mM EGTA, 2 uM substrate peptide Ser/Thr20 (proprietary Life Technologies Sequence), PAK enzyme [2.42-30.8 ng for PAK1, 0.29-6 ng for PAK2, 1.5-20 ng for PAK3 and 0.1-0.86 ng for PAK4; actual enzyme amounts depend on lot activity of the enzyme preparation]
(§3) Test compounds are dissolved in DMSO at various concentrations; the final DMSO concentration in the assay reaction is 1%.
(§4) ATP concentration at […] apparent is used in the assay [50 ┌M ATP for PAK1 assay, 75 ┌M ATP for PAK2 assay, 100 μM ATP for PAK3 assay, 5 μM ATP for PAK4 assay] in a total assay volume of 10 μl. Assay reactions are incubated at room temperature for 1 hr. Following the kinase reaction, 5 μl of 1:256 dilution of development solution A (Life Technologies) is added and the reaction mix is incubated for an additional 1 hr at room temperature.
(§5) Plates are analyzed in a standard fluorescence plate reader (Tecan or equivalent) using an excitation wavelength of 400 nn and emission wavelengths of 445 nm and 520 nm.
(§6) Inhibition of kinase reaction is determined by emission ratio=emission@445 nm/emission@520 nm
(§7) A fluorescence-based assay format is used to determine IC50 values of test compounds in vitro. Purified PAK kinase is incubated with ATP, and a test compound at various concentrations and a substrate peptide containing two fluorophores. In a second step, the reaction mix is incubated with a site-specific protease that cleaves non-phosphorylated but not phosphorylated substrate peptide, disrupting the FRET signal generated by the two fluorophores in the cleaved peptide (Z'Lyte™ Kinase assay platform Life Technologies).
(§8) Reagents: 50 mM HEPES, pH 7.5; 0.01% BRIJ-35; 10 mM MgCl2; 1 mM EGTA, 2 uM substrate peptide Ser/Thr20 (proprietary Life Technologies Sequence), PAK enzyme [2.42-30.8 ng for PAK1, 0.29-6 ng for PAK2, 1.5-20 ng for PAK3 and 0.1-0.86 ng for PAK4; actual enzyme amounts depend on lot activity of the enzyme preparation]
(§9) ATP concentration at Km apparent is used in the assay [50 μMATP for PAK1 assay, 75 µM ATP for PAK2 assay, 100 μM ATP for PAK3 assay, 5 μM ATP for PAK4 assay] in a total assay volume of […] Assay reactions are incubated at room temperature for 1 hr. Following the kinase reaction. […] of 1:256 dilution of development solution A (Life Technologies) is added and the reaction mix is incubated for an additional 1 hr at room temperature.
(§10) Plates are analyzed in a standard fluorescence plate reader (Teem or equivalent) using an excitation wavelength of 400 nm and emission wavelengths of 445 nm and 520 nm.

[2] = biological target: PAK1 (Homo sapiens, UniProt Q13153); assay: Z'Lyte fluorescence-based (FRET) PAK kinase assay, PAK1; settings: 50 μM ATP
Protocol: as §1, §2, §3, §4, §5, §6, §7, §8, §9, §10

[3] = biological target: PAK2 (Homo sapiens, UniProt Q13177); assay: Z'Lyte fluorescence-based (FRET) PAK kinase assay, PAK2
Protocol: as §1, §2, §3, §4, §5, §6, §7, §8, §9, §10

[4] = biological target: PAK3 (Homo sapiens, UniProt O75914); assay: Z'Lyte fluorescence-based (FRET) PAK kinase assay, PAK3; settings: 100 μM ATP
Protocol: as §1, §2, §3, §4, §5, §6, §7, §8, §9, §10

[5] = Table 1 of Example 100, 75 μM ATP
[6] = Table 1 of Example 29 (own compound numbering)
[7] = Table 1 of Example 29 (own compound numbering), 75 µM ATP

Sequence of PAK2 (Q13177 whole entry): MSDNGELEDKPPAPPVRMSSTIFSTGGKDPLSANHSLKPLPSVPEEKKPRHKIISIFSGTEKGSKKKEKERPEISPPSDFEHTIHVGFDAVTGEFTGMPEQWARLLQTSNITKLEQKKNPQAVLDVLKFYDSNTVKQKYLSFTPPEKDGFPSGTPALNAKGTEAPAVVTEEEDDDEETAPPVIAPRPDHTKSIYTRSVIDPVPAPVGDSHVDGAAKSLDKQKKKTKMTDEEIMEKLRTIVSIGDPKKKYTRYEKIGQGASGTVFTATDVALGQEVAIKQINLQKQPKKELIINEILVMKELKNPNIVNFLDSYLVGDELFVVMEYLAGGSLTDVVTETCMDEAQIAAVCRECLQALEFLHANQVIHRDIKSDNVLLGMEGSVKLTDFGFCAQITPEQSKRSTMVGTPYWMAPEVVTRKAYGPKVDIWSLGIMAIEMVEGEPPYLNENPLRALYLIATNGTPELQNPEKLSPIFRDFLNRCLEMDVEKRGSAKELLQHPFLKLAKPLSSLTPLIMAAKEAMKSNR
Sequence of PAK4 (O96013 whole entry): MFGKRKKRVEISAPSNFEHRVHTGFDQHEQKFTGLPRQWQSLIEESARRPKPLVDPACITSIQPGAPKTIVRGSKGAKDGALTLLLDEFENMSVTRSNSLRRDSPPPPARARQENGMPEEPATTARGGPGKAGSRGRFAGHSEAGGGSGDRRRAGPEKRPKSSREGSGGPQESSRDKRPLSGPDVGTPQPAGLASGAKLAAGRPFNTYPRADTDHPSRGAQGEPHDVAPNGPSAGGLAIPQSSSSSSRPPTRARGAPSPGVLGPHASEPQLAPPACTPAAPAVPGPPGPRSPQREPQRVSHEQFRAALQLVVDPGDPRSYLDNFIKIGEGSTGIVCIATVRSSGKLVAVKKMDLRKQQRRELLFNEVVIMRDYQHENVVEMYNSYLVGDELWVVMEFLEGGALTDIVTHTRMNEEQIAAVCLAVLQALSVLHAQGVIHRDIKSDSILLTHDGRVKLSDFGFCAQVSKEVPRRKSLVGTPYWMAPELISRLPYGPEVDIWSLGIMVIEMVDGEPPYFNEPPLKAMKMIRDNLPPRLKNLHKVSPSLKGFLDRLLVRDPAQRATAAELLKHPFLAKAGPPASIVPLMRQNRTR
Sequence of PAK1 (Q13153 whole entry): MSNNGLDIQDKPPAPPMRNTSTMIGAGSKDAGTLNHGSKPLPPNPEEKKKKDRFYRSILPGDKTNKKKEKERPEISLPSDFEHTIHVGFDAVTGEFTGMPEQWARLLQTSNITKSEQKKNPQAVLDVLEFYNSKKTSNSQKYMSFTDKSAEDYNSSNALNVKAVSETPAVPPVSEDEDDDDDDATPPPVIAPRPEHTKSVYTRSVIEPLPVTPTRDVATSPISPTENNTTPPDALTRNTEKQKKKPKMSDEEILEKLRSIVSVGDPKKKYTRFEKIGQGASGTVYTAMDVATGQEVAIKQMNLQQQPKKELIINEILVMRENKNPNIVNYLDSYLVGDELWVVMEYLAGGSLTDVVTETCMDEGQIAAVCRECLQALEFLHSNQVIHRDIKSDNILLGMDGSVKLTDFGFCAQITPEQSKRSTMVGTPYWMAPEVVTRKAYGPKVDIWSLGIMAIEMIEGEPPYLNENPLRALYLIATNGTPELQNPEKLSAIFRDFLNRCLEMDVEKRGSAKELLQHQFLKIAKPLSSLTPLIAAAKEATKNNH
Sequence of PAK3 (O75914 whole entry): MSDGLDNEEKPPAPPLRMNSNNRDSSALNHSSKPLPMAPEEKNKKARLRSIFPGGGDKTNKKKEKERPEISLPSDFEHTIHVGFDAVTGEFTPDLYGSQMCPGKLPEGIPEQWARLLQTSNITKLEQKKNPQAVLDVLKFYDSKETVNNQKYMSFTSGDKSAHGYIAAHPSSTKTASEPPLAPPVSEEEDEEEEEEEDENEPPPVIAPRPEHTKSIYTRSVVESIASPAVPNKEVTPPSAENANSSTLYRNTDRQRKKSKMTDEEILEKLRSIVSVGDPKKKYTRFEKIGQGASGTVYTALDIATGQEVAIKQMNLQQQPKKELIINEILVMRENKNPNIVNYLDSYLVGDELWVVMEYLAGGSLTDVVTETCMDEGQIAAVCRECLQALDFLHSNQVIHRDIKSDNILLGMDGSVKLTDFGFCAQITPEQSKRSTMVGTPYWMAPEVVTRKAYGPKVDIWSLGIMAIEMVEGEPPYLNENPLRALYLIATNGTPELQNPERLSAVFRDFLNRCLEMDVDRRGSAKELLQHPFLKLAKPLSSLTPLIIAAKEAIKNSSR

| SMILES | IC50 ([1]; Table 1 of Example 100) [nM] | IC50 ([2]; Table 1 of Example 100) [nM] | IC50 [3, 5] [nM] | IC50 ([4]; Table 1 of Example 100) [nM] | IC50 [1, 6] [nM] | IC50 [2, 6] [nM] | IC50 [3, 7] [nM] | IC50 [4, 6] [nM] |
| --- | --- | --- | --- | --- | --- | --- | --- | --- |
| CN1CCN(c2ccc(Nc3ncc4ccc(=O)n(C5CCOc6ccccc65)c4n3)cc2)CC1 (centres unmarked) [Compound 15] | 1000 to 10000 | 1000 to 10000 | 1000 to 10000 | 1000 to 10000 | – | – | – | – |
| CN(C)CC(c1ccccc1)n1c(=O)ccc2cnc(Nc3ccc(N4CCOCC4)cc3)nc21 (centres unmarked) [Compound 16] | > 10000 | > 10000 | > 10000 | > 10000 | – | – | – | – |
| CN1CCN(c2ccc(Nc3ncc4ccc(=O)n(C5Cc6ccccc6C5)c4n3)cc2)CC1 [Compound 17] | < 1000 | < 1000 | 1000 to 10000 | 1000 to 10000 | – | – | – | – |
| CN1CCN(c2ccc(Nc3ncc4ccc(=O)n(C5CCc6ccccc6C5)c4n3)cc2)CC1 (centres unmarked) [Compound 18] | < 1000 | < 1000 | < 1000 | < 1000 | – | – | – | – |
| CN(C)CC(c1ccccc1)n1c(=O)ccc2cnc(Nc3ccc(N4CCN(C)CC4)cc3)nc21 (centres unmarked) [Compound 19] | > 10000 | > 10000 | > 10000 | > 10000 | – | – | – | – |
| CN1CCN(c2ccc(Nc3ncc4ccc(=O)n(C5CCC(C)(C)c6ccccc65)c4n3)cc2)CC1 (centres unmarked) [Compound 20] | 1000 to 10000 | < 1000 | < 1000 | 1000 to 10000 | – | – | – | – |
| O=c1ccc2cnc(Nc3ccc(N4CCNCC4)c(F)c3)nc2n1C1Cc2ccccc2C1 [Compound 21] | < 1000 | < 1000 | < 1000 | 1000 to 10000 | – | – | – | – |
| O=c1ccc2cnc(Nc3ccc(N4CCNCC4)c(F)c3)nc2n1C1CCc2ccccc2C1 (centres unmarked) [Compound 22] | < 1000 | < 1000 | < 1000 | < 1000 | – | – | – | – |
| CN1CCN(c2ccc(Nc3ncc4ccc(=O)n(Cc5ccccc5C(F)(F)F)c4n3)cc2)CC1 [Compound 42] | < 1000 | < 1000 | < 1000 | < 1000 | – | – | – | – |
| CN1CCN(c2ccc(Nc3ncc4ccc(=O)n(Cc5ccccc5SC(F)(F)F)c4n3)cc2)CC1 [Compound 43] | < 1000 | < 1000 | < 1000 | < 1000 | – | – | – | – |
| CN1CCN(c2ccc(Nc3ncc4ccc(=O)n(Cc5ccccc5OC(F)F)c4n3)cc2)CC1 [Compound 44] | < 1000 | < 1000 | < 1000 | < 1000 | – | – | – | – |
| Cc1cc(F)ccc1Cn1c(=O)ccc2cnc(Nc3ccc(N4CCN(C)CC4)cc3)nc21 [Compound 45] | 1000 to 10000 | 1000 to 10000 | 1000 to 10000 | 1000 to 10000 | – | – | – | – |
| Cc1ccc(C)c(Cn2c(=O)ccc3cnc(Nc4ccc(N5CCN(C)CC5)cc4)nc32)c1 [Compound 46] | 1000 to 10000 | 1000 to 10000 | 1000 to 10000 | 1000 to 10000 | – | – | – | – |
| CC(c1ccccc1)n1c(=O)ccc2cnc(Nc3ccc(N4CCN(C)CC4)cc3)nc21 (centres unmarked) [Compound 48] | 1000 to 10000 | 1000 to 10000 | 1000 to 10000 | > 10000 | – | – | – | – |
| CN1CCN(c2ccc(Nc3ncc4ccc(=O)n(CCc5ccccc5)c4n3)cc2)CC1 [Compound 49] | < 1000 | < 1000 | < 1000 | 1000 to 10000 | – | – | – | – |
| CN1CCN(c2ccc(Nc3ncc4ccc(=O)n(CC(=O)c5ccccc5)c4n3)cc2)CC1 [Compound 50] | 1000 to 10000 | 1000 to 10000 | 1000 to 10000 | 1000 to 10000 | – | – | – | – |
| Cc1cccnc1Cn1c(=O)ccc2cnc(Nc3ccc(N4CCN(C)CC4)cc3)nc21 [Compound 52] | 1000 to 10000 | 1000 to 10000 | 1000 to 10000 | > 10000 | – | – | – | – |
| CN1CCN(c2ccc(Nc3ncc4ccc(=O)n(Cc5ccccc5-n5cccn5)c4n3)cc2)CC1 [Compound 53] | 1000 to 10000 | < 1000 | 1000 to 10000 | 1000 to 10000 | – | – | – | – |
| COc1ccc(F)cc1Cn1c(=O)ccc2cnc(Nc3ccc(N4CCN(C)CC4)cc3)nc21 [Compound 54] | 1000 to 10000 | < 1000 | 1000 to 10000 | 1000 to 10000 | – | – | – | – |
| CC(c1ccccc1)n1c(=O)ccc2cnc(Nc3ccc(N4CCN(C)CC4)cc3)nc21 (centres unmarked) [Compound 102] | – | – | – | – | 1000 to 10000 | 1000 to 10000 | 1000 to 10000 | > 10000 |
| CN1CCN(c2ccc(Nc3ncc4ccc(=O)n(CCc5ccccc5)c4n3)cc2)CC1 [Compound 103] | – | – | – | – | < 1000 | < 1000 | < 1000 | 1000 to 10000 |
| CN1CCN(c2ccc(Nc3ncc4ccc(=O)n(CC(=O)c5ccccc5)c4n3)cc2)CC1 [Compound 104] | – | – | – | – | 1000 to 10000 | 1000 to 10000 | 1000 to 10000 | 1000 to 10000 |
| Cc1cccnc1Cn1c(=O)ccc2cnc(Nc3ccc(N4CCN(C)CC4)cc3)nc21 [Compound 106] | – | – | – | – | 1000 to 10000 | 1000 to 10000 | 1000 to 10000 | > 10000 |
| CN1CCN(c2ccc(Nc3ncc4ccc(=O)n(Cc5ccccc5-n5cccn5)c4n3)cc2)CC1 [Compound 107] | – | – | – | – | 1000 to 10000 | < 1000 | 1000 to 10000 | 1000 to 10000 |
| COc1ccc(F)cc1Cn1c(=O)ccc2cnc(Nc3ccc(N4CCN(C)CC4)cc3)nc21 [Compound 108] | – | – | – | – | 1000 to 10000 | < 1000 | 1000 to 10000 | 1000 to 10000 |
| CN1CCN(c2ccc(Nc3ncc4ccc(=O)n(Cc5c(O)cccc5Cl)c4n3)cc2)CC1 [Compound 109] | – | – | – | – | < 1000 | < 1000 | < 1000 | 1000 to 10000 |
| CN1CCCC(Nc2ccc(Nc3ncc4ccc(=O)n(Cc5ccccc5C(F)(F)F)c4n3)cc2)C1 (centres unmarked) [Compound 115] | – | – | – | – | < 1000 | < 1000 | < 1000 | < 1000 |
| Cc1ccccc1Cn1c(=O)ccc2cnc(Nc3ccc(N4CCN(C)CC4)cc3)nc21 [Compound 117] | – | – | – | – | < 1000 | < 1000 | < 1000 | < 1000 |
| Cc1cccc(O)c1Cn1c(=O)ccc2cnc(Nc3ccc(N4CCN(C)CC4)cc3)nc21 [Compound 119] | – | – | – | – | < 1000 | < 1000 | 1000 to 10000 | 1000 to 10000 |
